The results in this text go back to USRE49517E1, “Pyrazoles” (Janssen Pharmaceuticals, Inc., priority 2014, dated 2023).

The data set deals with human ERG receptor (Homo sapiens (Human), UniProt Q12809). The experiment in a line: HERGBD: inhibition of specific [3H]-Dofetilide binding to the hERG receptor. As to conditions: HEK cell membranes. As to the method: Inhibition of Specific Binding to the hERG—Receptor (HERGBD)
A HEK cell line with stable transfected human ERG receptor was used for the assay. The cells were grown adherently and maintained in DULBECCOS' MEM medium with 10% FBS, 1% non-essential amino acids, 1% Penicillin/Streptomycin and 400 μg/ml G418 (Calbiochem).
For binding assays and membrane preparations the cell culture medium was removed, cells were washed with PBS. Crude membranes for radioligand binding experiments were prepared by scraping the cells off the dishes in ice cold 20 mM HEPES/0.1 mM KCl/pH 7.2. […]
Binding was terminated by filtration of the incubated membrane preparations using Filtermat B (Pharmacia, Uppsala Sweden) and a Micro Cell Harvester (Skatron, Lier, Norway). The Filtermat B had been presoaked with 1% polyethylen imine and carefully washed with 0.05 M Tris/HCl-buffer pH=7.7 after the filtration to separate free and bound radioactivity. The filters were counted in a scintillation counter (Betaplate 1205, Berthold, Wildbad, Germany) in order to determine the specific binding of [^3H]-Dofetilide.
The optimal amount of membrane preparation in the assay was determined and optimized for each membrane preparation separately in front of using the membranes in compound testing. […]

Broadly, the IC50 is the concentration needed to halve the response being measured. Read a high IC50 as a need for much substance.

Molecules are shown by their SMILES.

Sequence of human ERG receptor (Q12809 whole entry): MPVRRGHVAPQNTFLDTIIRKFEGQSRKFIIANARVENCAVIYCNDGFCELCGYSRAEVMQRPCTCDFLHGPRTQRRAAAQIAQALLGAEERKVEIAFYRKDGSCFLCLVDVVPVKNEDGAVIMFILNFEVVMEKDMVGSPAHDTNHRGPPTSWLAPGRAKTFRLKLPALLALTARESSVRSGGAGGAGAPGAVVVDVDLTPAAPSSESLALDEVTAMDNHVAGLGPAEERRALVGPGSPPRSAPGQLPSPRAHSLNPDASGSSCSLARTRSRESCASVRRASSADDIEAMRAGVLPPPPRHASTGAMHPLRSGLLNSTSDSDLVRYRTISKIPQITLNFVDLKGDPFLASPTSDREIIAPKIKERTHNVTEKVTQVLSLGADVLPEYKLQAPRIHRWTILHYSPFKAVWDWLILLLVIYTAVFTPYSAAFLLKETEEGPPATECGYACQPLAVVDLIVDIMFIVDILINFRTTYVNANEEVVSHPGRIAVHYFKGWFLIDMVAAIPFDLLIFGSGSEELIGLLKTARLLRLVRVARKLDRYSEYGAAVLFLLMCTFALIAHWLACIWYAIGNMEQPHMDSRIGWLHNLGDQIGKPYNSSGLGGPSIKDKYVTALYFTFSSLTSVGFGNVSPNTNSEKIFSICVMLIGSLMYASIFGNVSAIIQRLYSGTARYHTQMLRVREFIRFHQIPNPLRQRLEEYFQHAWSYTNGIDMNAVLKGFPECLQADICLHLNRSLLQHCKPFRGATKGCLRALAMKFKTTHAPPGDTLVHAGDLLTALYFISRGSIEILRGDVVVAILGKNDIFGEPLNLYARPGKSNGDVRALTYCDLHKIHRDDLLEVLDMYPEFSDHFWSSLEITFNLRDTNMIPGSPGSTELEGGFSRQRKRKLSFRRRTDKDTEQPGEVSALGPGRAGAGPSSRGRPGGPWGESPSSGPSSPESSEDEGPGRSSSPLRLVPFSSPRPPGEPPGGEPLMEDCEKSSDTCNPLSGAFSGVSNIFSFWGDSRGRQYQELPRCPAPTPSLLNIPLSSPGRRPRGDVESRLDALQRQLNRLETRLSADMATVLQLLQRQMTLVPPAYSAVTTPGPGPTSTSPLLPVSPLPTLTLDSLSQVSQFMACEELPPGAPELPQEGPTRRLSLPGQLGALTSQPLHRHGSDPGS

As to `Cn1ccc(Cn2cc(-c3cccc(C(F)(F)F)c3)cn2)n1` [Example 49, 1-methyl-3-[[4-[3-(trifluoromethyl)phenyl]pyrazol-1-yl]methyl]pyrazole], the IC50 turned out to be 19 µM.

`Cc1cc(Cn2cc(-c3ccc(C(F)(F)F)cc3)cn2)n(C)n1` [Example 51, 1,3-Dimethyl-5-[[4-[4-(trifluoromethyl)phenyl]pyrazol-1-yl]methyl]-Pyrazole] registered an IC50 of 137 µM.
